Measured values published in patent US20220289753A1, “SHP2 INHIBITORS” (IRBM S.P.A., priority 2019, published 2022).
Read-outs that look alike come from different tables or passages of the source.

What was measured:
[1] = biological target: T1, SHP-2 enzyme (Met1-Leu525) (Homo sapiens, UniProt Q06124); assay: SHP2 inhibition enzymatic assay (DiFMUP substrate, IRS1 peptide activation); type: biochemical; conditions: SHP2 wt; activated by 500 nM IRS1 peptide; 75 μM DiFMUP substrate
T1 construct: synthetized by Origene, Met1-Leu525, cat #TP750155; purchased Origene TP750155
T1 sequence (Q06124 1-525): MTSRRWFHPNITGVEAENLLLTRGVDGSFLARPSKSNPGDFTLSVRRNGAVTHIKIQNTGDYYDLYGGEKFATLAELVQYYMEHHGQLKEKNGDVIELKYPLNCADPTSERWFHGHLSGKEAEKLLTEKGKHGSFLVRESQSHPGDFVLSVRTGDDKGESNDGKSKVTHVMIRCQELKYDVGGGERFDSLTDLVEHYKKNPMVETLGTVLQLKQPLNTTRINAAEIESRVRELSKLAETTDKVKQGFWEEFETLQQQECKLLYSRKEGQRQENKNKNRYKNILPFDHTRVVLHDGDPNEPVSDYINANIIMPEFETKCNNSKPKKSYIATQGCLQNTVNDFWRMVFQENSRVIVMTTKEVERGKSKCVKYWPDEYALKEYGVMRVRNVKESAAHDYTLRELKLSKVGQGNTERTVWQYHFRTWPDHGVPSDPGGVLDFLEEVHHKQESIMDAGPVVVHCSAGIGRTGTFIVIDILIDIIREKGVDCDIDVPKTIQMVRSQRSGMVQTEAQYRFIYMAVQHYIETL
In short: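 SHP-2 (Met1-Leu525, 0.5 nM final) preincubated 30 min with compounds and IRS1 activating peptide in HEPES pH 7.2 buffer with NaCl, KCl, EDTA, tween-20, 5 mM DTT. DiFMUP then added for 30 min at room temperature and fluorescence read. IC50 from four-parameter logistic fit of % inhibition.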

[2] = system: ERK phosphorylation in KYSE-520 cells; assay: Phospho-ERK cellular assay (Advanced phospho-ERK1/2 (Thr202/Tyr204) TR-FRET kit); type: cell-based; conditions: KYSE-520 cells, 2 h at 37° C., TR-FRET, read-out: pERK IC50
In short: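 IC50 values are inflection points of four-parameter logistic fits of percent activity against compound dilution. Compound exposure lasted 2 h at 37° C in KYSE-520 cells. Lysates were probed overnight with Eu-cryptate/d2 antibodies to ERK1/2 phosphorylated at Thr202/Tyr204, so reduced TR-FRET indicates SHP2 inhibition.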

| Compound | IC50 [1] [µM] | IC50 ([2]; Homo sapiens, KYSE-520, 2 h) [µM] | IC50 [2] [µM] |
| --- | --- | --- | --- |
| Nc1nccc(Sc2cnc3nc(N4CCC5(CC4)Cc4cccc(F)c4[C@H]5N)[nH]c3n2)c1Cl [Example 203, (S)-1′-(6-((2-amino-3-chloropyridin-4-yl)thio)-1H-imidazo[4,5-b]pyrazin-2-yl)-7-fluoro-1,3-dihydrospiro[indene-2,4′-piperidin]-1-amine] | < 0.5 | < 1 | – |
| Cc1c(Sc2cnc3nc(N4CCC5(CC4)Cc4ccccc4[C@H]5N)[nH]c3n2)ccnc1N [Example 204, (S)-1′-(6-((2-amino-3-methylpyridin-4-yl)thio)-1H-imidazo[4,5-b]pyrazin-2-yl)-1,3-dihydrospiro[indene-2,4′-piperidin]-1-amine] | < 0.5 | < 1 | – |
| COc1ccc2c(c1)[C@@H](N)C1(CCN(c3nc4nc(Sc5ccnc(N)c5Cl)cnc4[nH]3)CC1)C2 [Example 205, (S)-1′-(5-((2-amino-3-chloropyridin-4-yl)thio)-1H-imidazo[4,5-b]pyrazin-2-yl)-6-methoxy-1,3-dihydrospiro[indene-2,4′-piperidin]-1-amine] | < 0.5 | < 1 | – |
| Nc1nccc(Sc2cnc3[nH]c(N4CCC5(CC4)Cc4c(F)cccc4[C@H]5N)nc3n2)c1Cl [Example 206, (S)-1′-(5-((2-amino-3-chloropyridin-4-yl)thio)-1H-imidazo[4,5-b]pyrazin-2-yl)-4-fluoro-1,3-dihydrospiro[indene-2,4′-piperidin]-1-amine] | < 0.5 | < 1 | – |
| N[C@@H]1c2cccc(F)c2CC12CCN(c1nc3nc(Sc4ccncc4Cl)cnc3[nH]1)CC2 [Example 207, (S)-1′-(5-((3-chloropyridin-4-yl)thio)-1H-imidazo[4,5-b]pyrazin-2-yl)-4-fluoro-1,3-dihydrospiro[indene-2,4′-piperidin]-1-amine] | < 0.5 | 1 to 5 | < 1 |
| CNc1nccc(Sc2cnc3[nH]c(N4CCC5(CC4)Cc4ccccc4[C@H]5N[S@+]([O-])C(C)(C)C)nc3n2)c1Cl [Example 209, (R)-N-((S)-1′-(5-((3-chloro-2-(methylamino)pyridin-4-yl)thio)-1H-imidazo[4,5-b]pyrazin-2-yl)-1,3-dihydrospiro[indene-2,4′-piperidin]-1-yl)-2-methylpropane-2-sulfinamide] | < 0.5 | 1 to 5 | < 1 |
| N[C@@H]1c2ccccc2CC12CCN(c1nc3nc(Sc4cccc5nonc45)cnc3[nH]1)CC2 [Example 213, (S)-1′-(5-(benzo[c][1,2,5]oxadiazol-4-ylthio)-1H-imidazo[4,5-b]pyrazin-2-yl)-1,3-dihydrospiro[indene-2,4′-piperidin]-1-amine] | < 0.5 | < 1 | – |
| N#Cc1c(Sc2cnc3[nH]c(N4CCC5(CC4)Cc4ccccc4[C@H]5N)nc3n2)ccnc1N [Example 215, (S)-2-amino-4-((2-(1-amino-1,3-dihydrospiro[indene-2,4′-piperidin]-1′-yl)-1H-imidazo[4,5-b]pyrazin-5-yl)thio)nicotinonitrile] | < 0.5 | < 1 | – |
| N[C@@H]1c2ccccc2CC12CCN(c1nc3nc(Sc4cccc5[nH]c(=O)cnc45)cnc3[nH]1)CC2 [Example 216, (S)-5-((2-(1-amino-1,3-dihydrospiro[indene-2,4′-piperidin]-1′-yl)-1H-imidazo[4,5-b]pyrazin-5-yl)thio)quinoxalin-2(1H)-one] | < 0.5 | < 1 | – |
| N#Cc1ncccc1Sc1cnc2[nH]c(N3CCC4(CC3)Cc3ccccc3[C@H]4N)nc2n1 [Example 217, (S)-3-((2-(1-amino-1,3-dihydrospiro[indene-2,4′-piperidin]-1′-yl)-1H-imidazo[4,5-b]pyrazin-5-yl)thio)picolinonitrile] | < 0.5 | < 1 | – |
| N[C@@H]1c2ccccc2CC12CCN(c1nc3nc(Sc4ccnc5cccc(F)c45)cnc3[nH]1)CC2 [Example 218, (S)-1′-(5-((5-fluoroquinolin-4-yl)thio)-1H-imidazo[4,5-b]pyrazin-2-yl)-1,3-dihydrospiro[indene-2,4′-piperidin]-1-amine] | < 0.5 | < 1 | – |
| Nc1nccc(Sc2cnc3[nH]c(N4CCC5(CC4)Cc4ccc(Br)cc4[C@H]5N)nc3n2)c1Cl [Example 219, (S)-1′-(5-((2-amino-3-chloropyridin-4-yl)thio)-1H-imidazo[4,5-b]pyrazin-2-yl)-6-bromo-1,3-dihydrospiro[indene-2,4′-piperidin]-1-amine] | < 0.5 | < 1 | – |
| COc1ccc2nccc(Sc3cnc4[nH]c(N5CCC6(CC5)Cc5ccccc5[C@H]6N)nc4n3)c2n1 [Example 220, (S)-1′-(5-((6-methoxy-1,5-naphthyridin-4-yl)thio)-1H-imidazo[4,5-b]pyrazin-2-yl)-1,3-dihydrospiro[indene-2,4′-piperidin]-1-amine] | < 0.5 | 1 to 5 | – |
| N[C@@H]1c2ccccc2CC12CCN(c1nc3nc(Sc4cnc5ccccn5c4=O)cnc3[nH]1)CC2 [Example 221, (S)-3-((2-(1-amino-1,3-dihydrospiro[indene-2,4′-piperidin]-1′-yl)-1H-imidazo[4,5-b]pyrazin-5-yl)thio)-4H-pyrido[1,2-a]pyrimidin-4-one] | 0.5 to 3 | 1 to 5 | – |
| Nc1nccc(Sc2cnc3[nH]c(N4CCC5(CC4)Cc4ccccc4[C@H]5N)nc3n2)c1F [Example 222, (S)-1′-(5-((2-amino-3-fluoropyridin-4-yl)thio)-1H-imidazo[4,5-b]pyrazin-2-yl)-1,3-dihydrospiro[indene-2,4′-piperidin]-1-amine] | < 0.5 | > 5 | – |
| Nc1nccc(Sc2cnc3[nH]c(N4CCC5(CC4)Cc4ccc(N6CCOCC6)cc4[C@H]5N)nc3n2)c1Cl [Example 223, (S)-1′-(5-((2-amino-3-chloropyridin-4-yl)thio)-1H-imidazo[4,5-b]pyrazin-2-yl)-6-morpholino-1,3-dihydrospiro[indene-2,4′-piperidin]-1-amine] | < 0.5 | > 5 | – |
| CNC(=O)c1ncccc1Sc1cnc2[nH]c(N3CCC4(CC3)Cc3ccccc3[C@H]4N)nc2n1 [Example 224, (S)-3-((2-(1-amino-1,3-dihydrospiro[indene-2,4′-piperidin]-1′-yl)-1H-imidazo[4,5-b]pyrazin-5-yl)thio)-N-methylpicolinamide] | < 0.5 | > 5 | – |
| N[C@@H]1c2ccccc2CC12CCN(c1nc3nc(Sc4cccnc4N4CCCC4)cnc3[nH]1)CC2 [Example 225, (S)-1′-(5-((2-(pyrrolidin-1-yl)pyridin-3-yl)thio)-1H-imidazo[4,5-b]pyrazin-2-yl)-1,3-dihydrospiro[indene-2,4′-piperidin]-1-amine] | < 0.5 | > 5 | – |
| N[C@@H]1c2ccccc2CC12CCN(c1nc3nc(Sc4ccncc4OC(F)(F)F)cnc3[nH]1)CC2 [Example 226, (S)-1′-(5-((3-(trifluoromethoxy)pyridin-4-yl)thio)-1H-imidazo[4,5-b]pyrazin-2-yl)-1,3-dihydrospiro[indene-2,4′-piperidin]-1-amine] | < 0.5 | < 1 | – |
| Cc1nc(COc2cnccc2Sc2cnc3[nH]c(N4CCC5(CC4)Cc4ccccc4[C@H]5N)nc3n2)co1 [Example 227, (S)-1′-(5-((3-((2-methyloxazol-4-yl)methoxy)pyridin-4-yl)thio)-1H-imidazo[4,5-b]pyrazin-2-yl)-1,3-dihydrospiro[indene-2,4′-piperidin]-1-amine] | < 0.5 | > 5 | – |
| COc1nccc(Sc2cnc3[nH]c(N4CCC5(CC4)Cc4ccc(Br)cc4[C@H]5N)nc3n2)c1Cl [Example 228, (S)-6-bromo-1′-(5-((3-chloro-2-methoxypyridin-4-yl)thio)-1H-imidazo[4,5-b]pyrazin-2-yl)-1,3-dihydrospiro[indene-2,4′-piperidin]-1-amine] | < 0.5 | > 5 | – |
| Nc1nccc(Sc2cnc3[nH]c(N4CCC5(CC4)Cc4ncc(F)cc4[C@@H]5N)nc3n2)c1Cl [Example 229, (R)-1′-(5-((2-amino-3-chloropyridin-4-yl)thio)-1H-imidazo[4,5-b]pyrazin-2-yl)-3-fluoro-5,7-dihydrospiro[cyclopenta[b]pyridine-6,4′-piperidin]-5-amine] | < 0.5 | > 5 | – |
| Nc1nccc(Sc2cnc3[nH]c(N4CCC5(CC4)Cc4ncc(F)cc4[C@H]5N)nc3n2)c1Cl [Example 230, (S)-1′-(5-((2-amino-3-chloropyridin-4-yl)thio)-1H-imidazo[4,5-b]pyrazin-2-yl)-3-fluoro-5,7-dihydrospiro[cyclopenta[b]pyridine-6,4′-piperidin]-5-amine] | < 0.5 | 1 to 5 | – |
